Experimental data published in patent US12409189B2, “STAUFEN1 agents and associated methods” (University of Utah Research Foundation, priority 2016, dated 2025).
d = 2'-deoxy (DNA); r = 2'-OH (RNA)

What was measured:
Assay type in all cases: cell-based, human
[1] = tested on: ATXN2 transcript; assay: qPCR of ATXN2 transcript in LB cells after Staufen1 silencing; conditions: normal or SCA2-LB cells, Staufen1 siRNA
Excerpt: (§1) The siRNAs used in this study were: All Star Negative Control siRNA (Qiagen Inc., USA; Cat #1027280), siATXN2 [Hs_ATXN2_2, (Qiagen Inc., USA; Cat #SI00308196), human siSTAU1: 5′-CCUAUAACUACAACAUGAGdTdT-3′ (SEQ ID NO: 3) and mouse siStau1: 5′-CAACUGUACUACCUUUCCAdTdT-3′ (SEQ ID NO: 31). Staufen1 siRNA oligonucleotides were synthesized by Invitrogen Inc., USA. The oligonucleotides were deprotected and the complementary strands were annealed.
(§2) For over-expression of recombinant proteins, SH-SY5Y cells were seeded on 100 mm or 6 well dishes and incubated overnight. The cells were then transfected with plasmid DNAs and harvested 48 hrs post-transfection and processed as two aliquots for protein and RNA analyses. For siRNA experiments, cells were transfected with siRNAs using lipofectamine 2000, and lymphoblastoid B cells (1×10^6) were electroporated with siRNAs using the Neon transfection system (Invitrogen Inc., USA) according to the manufacturer's protocol and seeded on 6 well plates.
(§3) RNA expression analyses by Quantitative RT-PCR. […] Quantitative RT-PCR was performed in QuantStudio 12K (Life Technologies, Inc.; USA) with the Power SYBR Green PCRMaster Mix (Applied Biosystems Inc.; USA). […] The threshold cycle for each sample was chosen from the linear range and converted to a starting quantity by interpolation from a standard curve run on the same plate for each set of primers. […]

[2] = tested on: ATXN2; assay: Western blot of ATXN2 in ATXN2-Q22/58 KI cells after RNAi
Description: (§4) SH-SY5Y cells were cultured in standard DMEM with 10% FBS and 1X penicillin/streptomycin in 5% CO2. Transfection of STAU1 siRNA or STAU1 ASO was accomplished using Lipofectamine transfection reagent using standard conditions. Cells were harvested 3-5 days post transfection.
Protein extracts were prepared by suspending cell pellets in SDS-PAGE sample buffer (Laemmli sample buffer) followed by boiling for 5 min. Equal amount of the extracts were subjected to Western blot analysis to determine the steady-state levels of proteins using the indicated antibodies. Protein extracts were resolved by SDS-PAGE and transferred to Hybond P membranes (Amersham Bioscience Inc., USA). […] Following three additional washes with 0.1% Tween 20/PBS, signals were detected by using the Immobilon Western Chemiluminescent HRP Substrate (Millipore Inc., USA; cat #WBKLSO100) according to the manufacturer's protocol. […]
(§5) Preparation of protein lysates and western blot analyses. […] Signals were detected by using the Immobilon Western Chemiluminescent HRP Substrate (Millipore Inc., USA; cat #WBKLSO100) according to the manufacturer's protocol. The intensity of proteins was determined by using the ImageJ software analyses system and the relative protein abundances were expressed as ratios to β-actin.

[3] = tested on: PCP2 mRNA; assay: qPCR of PCP2 transcript in LB cells and SCA2 fibroblasts after siRNA; conditions: Staufen1 siRNA
Excerpt: as §1, §2, §3

[4] = tested on: Staufen1; assay: Western blot of Staufen1 in normal and SCA2 LB cells and SCA2 fibroblasts after siRNA; conditions: siRNA electroporation, 4 days
Excerpt: as §1, §2, §5

[5] = tested on: autophagic pathway proteins (mTOR, P-mTOR, p62, LC3-II); assay: Western blot of autophagic pathway proteins in SH-SY5Y and ATXN2-Q22/58 knock-in cells; conditions: for autophagic pathway proteins: ATXN2-Q22/58 knock-in cells, RNAi transfection
Description: as §4
Protein extracts were prepared by suspending cell pellets in SDS-PAGE sample buffer (Laemmli sample buffer) followed by boiling for 5 min. Equal amount of the extracts were subjected to Western blot analysis to determine the steady-state levels of proteins using the indicated antibodies. Protein extracts were resolved by SDS-PAGE and transferred to Hybond P membranes (Amersham Bioscience Inc., USA). After blocking with 5% skim milk in 0.1% Tween 20/PBS, the membranes were incubated with primary antibodies in 5% skim milk in 0.1% Tween 20/PBS for 2 hrs at room temperature or overnight at 4° C. After several washes with 0.1% Tween 20/PBS, the membranes were incubated with the corresponding secondary antibodies conjugated with HRP in 5% skim milk in 0.1% Tween 20/PBS for 2 hrs at room temperature. Following three additional washes with 0.1% Tween 20/PBS, signals were detected by using the Immobilon Western Chemiluminescent HRP Substrate (Millipore Inc., USA; cat #WBKLSO100) according to the manufacturer's protocol. […] Secondary antibodies were horse anti-mouse IgG-HRP antibody (Vector laboratories, PI-2000), and goat anti-rabbit IgG-HRP antibody (Vector laboratories, PI-1000).
as §2
Preparation of protein lysates and western blot analyses. Cellular extracts were prepared by a single-step lysis method. […] Equal amounts of the extracts were used for western blot analyses. […] Only supernatants were used for western blotting. Protein extracts were resolved by SDS-PAGE and transferred to Hybond P membranes (Amersham Bioscience Inc., USA). After blocking with 5% skim milk in 0.1% Tween 20/PBS, the membranes were processed for immunostaining using corresponding primary and secondary antibodies. Signals were detected by using the Immobilon Western Chemiluminescent HRP Substrate (Millipore Inc., USA; cat #WBKLSO100) according to the manufacturer's protocol. The intensity of proteins was determined by using the ImageJ software analyses system and the relative protein abundances were expressed as ratios to β-actin.

[6] = tested on: mTOR and phospho-mTOR; assay: Western blot of mTOR and phospho-mTOR after mTOR RNAi; conditions: SH-SY5Y and ATXN2-Q22/58 KI cells, 4 days post-transfection
Excerpt: siRNAs. The siRNAs used in this study were: All Star Negative Control siRNA (Qiagen Inc., USA; Cat #1027280), human siATXN2 [Hs_ATXN2_2 (Qiagen Inc., USA; Cat #SI00308196)], human siSTAU1: 5′-CCUAUAACUACAACAUGAGdTdT-3′ (SEQ ID NO: 3), and simTOR: 5′-GAGCCUUGUUGAUCCUUAA-3′ (SEQ ID NO: 4). Staufen1 and mTOR siRNA oligonucleotides were synthesized by Invitrogen Inc., USA. The oligonucleotides were deprotected and the complementary strands were annealed.
as §2, §5

[7] = tested on: Staufen1; assay: Western blot of Staufen1 in SH-SY5Y and ATXN2-Q22/58 knock-in cells; conditions: ATXN2-Q22/58 KI cells, RNAi
Description: as §4
Protein extracts were prepared by suspending cell pellets in SDS-PAGE sample buffer (Laemmli sample buffer) followed by boiling for 5 min. Equal amount of the extracts were subjected to Western blot analysis to determine the steady-state levels of proteins using the indicated antibodies. Protein extracts were resolved by SDS-PAGE and transferred to Hybond P membranes (Amersham Bioscience Inc., USA). After blocking with 5% skim milk in 0.1% Tween 20/PBS, the membranes were incubated with primary antibodies in 5% skim milk in 0.1% Tween 20/PBS for 2 hrs at room temperature or overnight at 4° C. After several washes with 0.1% Tween 20/PBS, the membranes were incubated with the corresponding secondary antibodies conjugated with HRP in 5% skim milk in 0.1% Tween 20/PBS for 2 hrs at room temperature. Following three additional washes with 0.1% Tween 20/PBS, signals were detected by using the Immobilon Western Chemiluminescent HRP Substrate (Millipore Inc., USA; cat #WBKLSO100) according to the manufacturer's protocol. The antibodies used included ATXN2 mAb [(1:3000), BD Biosciences Inc.; cat #611378], rabbit anti-Staufen antibody (Novus biologicals Inc., NBP1-33202), SQSTM1/p62 antibody (Cell signaling, #5114), LC3B Antibody (Novus biologicals Inc., NB100-2220), mTOR antibody (Cell signaling, #2972), Phospho-mTOR (Ser2448) antibody (Cell signaling #2971), β-Actin mAb conjugated with HRP [(1:10,000), Sigma Inc.; cat #A3858]. Secondary antibodies were horse anti-mouse IgG-HRP antibody (Vector laboratories, PI-2000), and goat anti-rabbit IgG-HRP antibody (Vector laboratories, PI-1000).
as §2, §5

Row | Substance | ATXN2 transcript levels [1] | ATXN2 steady-state levels ([2]; listed as STAU1-RNAi) | ATXN2 steady-state levels ([2]; listed as STAU1 siRNA) | PCP2 mRNA level ([3]; SCA2-LB (ATXN2-Q22/52) cells, qPCR) | PCP2 mRNA levels ([3]; normal LB cells, vs control siRNA) | depletion of Staufen1 ([4]; SCA2-LB (ATXN2-Q22/52) cells) [%] | silencing of staufen1 ([4]; normal LB cells) [%] | autophagic pathway proteins ([5]; listed as STAU1 RNAi) | autophagic pathway proteins ([5]; listed as STAU1 siRNA) | mTOR and phospho-mTOR levels [6] | Staufen1 abundance [7] | autophagic pathway proteins [5] | Staufen1 and autophagic pathway protein component levels in control cells ([5]; control SH-SY5Y cells, mTOR RNAi, 4 days post-transfection)
1 | 5′-CCUAUAACUACAACAUGAGdTdT-3′ (sense CCUAUAACUACAACAUGAGTT; sugars from the 5' end r19 d2, backbone not given here) [siSTAU1, siRNA directed against human Staufen1, synthesized by Invitrogen] | does not show any effect on ATXN2 transcript levels | did not change ATXN2 levels | without affecting ATXN2 steady-state levels | restored PCP2 mRNA level to a level similar to that seen in normal LB cells treated with control siRNA | did not show significant alteration of PCP2 mRNA levels | ~83 | ~81 | restored autophagic pathway proteins | restoration of autophagic pathway proteins |  |  |  | 
2 | 5′-GAGCCUUGUUGAUCCUUAA-3′ (listed as RNA, chemistry not given here; listed as Homo sapiens) [simTOR, mTOR siRNA synthesized by Invitrogen] |  |  |  |  |  |  |  |  |  | depletion | reduced Staufen1 | improves autophagy marker proteins | without affecting those levels
